Source: patent publication US10570122B2, “Compounds with anti-tumoral activity” (AB Science, priority 2015, dated 2020)

Assays:
A375 = test: CellTiter-Blue cell-based survival/proliferation assay, A375; details: Homo sapiens, A-375; A375 melanoma cell line, 48 h
Experimental: (§1) Cell-Based Proliferation Screening of Compounds
(§2) CellTiter-Blue cell-based survival/proliferation assay (Promega G8080) was performed on tumor cell lines. A total of 1·10^4 cells/well/50 μl were seeded in a 96-wells plate. Treatment was initiated by addition of a 2× drug solution of 1/10 serial dilutions ranging from 0 to 10 μM. Cells were grown for 48 h at 37° C. and then incubated with 10 μl/well of Promega CellTiter-Bleue reagent for 4 h at 37° C. The amount of resorufin dye formed was quantified by its fluorescence emission at 590 nm using a scanning multiwell spectrophotometer (OPTIMA, BMG labtech, France). A blank well without cells was used as a background control for the spectrophotometer.

PLCPRF5 = test: CellTiter-Blue cell-based survival/proliferation assay, PLCPRF5; details: Homo sapiens, PLC-PRF-5; PLC_PRF5 liver tumor cell line, 48 h
How it was run: (§3)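 Tenfold compound dilutions (0–10 μM) were added to 1·10^4 cells/well. Plates incubated 48 h at 37 °C. CellTiter-Blue reduction (4 h, 37 °C) was read as fluorescence at 590 nm, background-corrected with a cell-free blank.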

CALU6 = test: CellTiter-Blue cell-based survival/proliferation assay, CALU6; details: Homo sapiens, Calu-6; CALU6 lung tumor cell line, 48 h
How it was run: as §3

A549 = test: CellTiter-Blue cell-based survival/proliferation assay, A549; details: Homo sapiens; A549 lung tumor cell line, 48 h
How it was run: as §3

TOV112D = test: CellTiter-Blue cell-based survival/proliferation assay, TOV112D; details: Homo sapiens; TOV112D ovary tumor cell line, 48 h
How it was run: as §3

DU145 = test: CellTiter-Blue cell-based survival/proliferation assay, DU145; details: Homo sapiens, DU-145; DU145 prostate tumor cell line, 48 h
How it was run: as §3

PC3 = test: CellTiter-Blue cell-based survival/proliferation assay, PC3; details: Homo sapiens, PC-3; PC3 prostate tumor cell line, 48 h
How it was run: as §3

H1299 = test: CellTiter-Blue cell-based survival/proliferation assay, H1299; details: Homo sapiens, NCI-H1299; H1299 lung tumor cell line, 48 h
How it was run: as §3

ACHN = test: CellTiter-Blue cell-based survival/proliferation assay, ACHN; details: Homo sapiens; ACHN kidney tumor cell line, 48 h
How it was run: as §3

U2OS = test: CellTiter-Blue cell-based survival/proliferation assay, U2OS; details: Homo sapiens; U2OS osteosarcoma cell line, 48 h
Experimental: as §1, §2

PANC1 = test: CellTiter-Blue cell-based survival/proliferation assay, PANC1; details: Homo sapiens, PANC-1; PANC_1 pancreas tumor cell line, 48 h
How it was run: as §3

DLD1 = test: CellTiter-Blue cell-based survival/proliferation assay, DLD1; details: Homo sapiens, DLD-1; DLD_1 colorectal tumor cell line, 48 h
How it was run: as §3

A4513 = test: CellTiter-Blue cell-based survival/proliferation assay, A4513; details: Homo sapiens; A4513 Ewing cell line, 48 h
Experimental: as §1, §2

HGC27 = test: CellTiter-Blue cell-based survival/proliferation assay, HGC27; details: Homo sapiens, HGC-27; HGC27 stomach tumor cell line, 48 h
How it was run: as §3

OPM2 = test: CellTiter-Blue cell-based survival/proliferation assay, OPM2; details: Homo sapiens, OPM-2, Myeloma cell line OPM2, 48 h, read-out: Anti-tumoral activity (measured IC50) OPM2
How it was run: as §3

BT20 = test: CellTiter-Blue cell-based survival/proliferation assay, BT20; details: Homo sapiens, BT-20; BT20 breast tumor cell line, 48 h
How it was run: as §3

A498 = test: CellTiter-Blue cell-based survival/proliferation assay, A498; details: Homo sapiens; A498 kidney tumor cell line, 48 h
How it was run: as §3

HEP2 = test: CellTiter-Blue cell-based survival/proliferation assay, HEP2; details: Homo sapiens, HEp-2; HEP2 head & neck tumor cell line, 48 h
How it was run: as §3

CLS354 = test: CellTiter-Blue cell-based survival/proliferation assay, CLS354; details: Homo sapiens, CLS-354; CLS354_4 head & neck tumor cell line, 48 h
How it was run: as §3

AGS = test: CellTiter-Blue cell-based survival/proliferation assay, AGS; details: Homo sapiens; AGS stomach tumor cell line, 48 h
How it was run: as §3

HUT78 = test: CellTiter-Blue cell-based survival/proliferation assay, HUT78; details: Homo sapiens, Lymphoma cell line HUT78, 48 h, read-out: Anti-tumoral activity (measured IC50) HUT78
How it was run: as §3

KARPAS299 = test: CellTiter-Blue cell-based survival/proliferation assay, KARPAS299; details: Homo sapiens, KARPAS-299, Lymphoma cell line KARPAS299, 48 h, read-out: Anti-tumoral activity (measured IC50) KARPAS299
How it was run: as §3

HEPG2 = test: CellTiter-Blue cell-based survival/proliferation assay, HEPG2; details: Homo sapiens; HEPG2 liver tumor cell line, 48 h
How it was run: as §3

HL60 = test: CellTiter-Blue cell-based survival/proliferation assay, HL60; details: Homo sapiens, HL-60, Leukemia cell line HL60, 48 h, read-out: Anti-tumoral activity (measured IC50) HL60
How it was run: as §3

U87MG = test: CellTiter-Blue cell-based survival/proliferation assay, U87MG; details: Homo sapiens, U-87 MG; U87_MG glioblastoma cell line, 48 h
Experimental: as §1, §2

BXPC3 = test: CellTiter-Blue cell-based survival/proliferation assay, BXPC3; details: Homo sapiens, BXPC-3; BXPC3 pancreas tumor cell line, 48 h
How it was run: as §3

REC1 = test: CellTiter-Blue cell-based survival/proliferation assay, REC1; details: Homo sapiens, Lymphoma cell line REC1, 48 h, read-out: Anti-tumoral activity (measured IC50) REC1
How it was run: as §3

SW579 = test: CellTiter-Blue cell-based survival/proliferation assay, SW579; details: Homo sapiens; SW579 head & neck tumor cell line, 48 h
How it was run: as §3

U118 = test: CellTiter-Blue cell-based survival/proliferation assay, U118; details: Homo sapiens; U118 glioblastoma cell line, 48 h
Experimental: as §1, §2

MESSA = test: CellTiter-Blue cell-based survival/proliferation assay, MESSA; details: Homo sapiens, MES-SA; MESSA ovary tumor cell line, 48 h
How it was run: as §3

MELWO = test: CellTiter-Blue cell-based survival/proliferation assay, MELWO; details: Homo sapiens; MEL_WO melanoma cell line, 48 h
Experimental: as §1, §2

MDAMB231 = test: CellTiter-Blue cell-based survival/proliferation assay, MDAMB231; details: Homo sapiens, MDA-MB-231; MDAMB231 breast tumor cell line, 48 h
How it was run: as §3

HCT116 = test: CellTiter-Blue cell-based survival/proliferation assay, HCT116; details: Homo sapiens, HCT-116; HCT116 colorectal tumor cell line, 48 h
How it was run: as §3

| Structure (SMILES) | IC50 (A375) | IC50 (PLCPRF5) | IC50 (CALU6) | IC50 (A549) | IC50 (TOV112D) | IC50 (DU145) | IC50 (PC3) | IC50 (H1299) | IC50 (ACHN) | IC50 (U2OS) | IC50 (PANC1) | IC50 (DLD1) | IC50 (A4513) | IC50 (HGC27) | IC50 (OPM2) | IC50 (BT20) | IC50 (A498) | IC50 (HEP2) | IC50 (CLS354) | IC50 (AGS) | other results |
| --- | --- | --- | --- | --- | --- | --- | --- | --- | --- | --- | --- | --- | --- | --- | --- | --- | --- | --- | --- | --- | --- |
| COc1ccc(C)c(Nc2ncc(-c3ccc(-n4cccn4)nc3)o2)c1 [Example 001, (5-Methoxy-2-methyl-phenyl)-[5-(6-pyrazol-1-yl-pyridin-3-yl)-oxazol-2-yl]-amine] | > 1000 nM | > 1000 nM | > 1000 nM | > 1000 nM | > 1000 nM | > 1000 nM | > 1000 nM | > 1000 nM | > 1000 nM | > 1000 nM | > 1000 nM | > 1000 nM | > 1000 nM | > 1000 nM | > 1000 nM | > 1000 nM | > 1000 nM | > 1000 nM | > 1000 nM | > 1000 nM | IC50 (HUT78): > 1000 nM; IC50 (KARPAS299): 500 to 1000 nM; IC50 (HEPG2): > 1000 nM; IC50 (HL60): > 1000 nM; IC50 (U87MG): > 1000 nM; IC50 (BXPC3): > 1000 nM; IC50 (REC1): 500 to 1000 nM; IC50 (SW579): > 1000 nM; IC50 (U118): > 1000 nM; IC50 (MESSA): > 1000 nM; IC50 (MELWO): > 1000 nM; IC50 (MDAMB231): > 1000 nM; IC50 (HCT116): > 1000 nM |
| CCOCc1ccc(C)c(Nc2nc(-c3ccc(N4CCNC4=O)cc3)ns2)c1 [Example 010, 1-{4-[5-(5-Ethoxymethyl-(2-methyl-phenylamino))-[1,2,4]thiadiazol-3-yl]-phenyl}-imidazolidin-2-one] | ≤ 100 nM | > 1000 nM | 500 to 1000 nM | > 1000 nM | ≤ 100 nM | > 1000 nM | ≤ 100 nM | 100 to 500 nM | ≤ 100 nM | > 1000 nM | > 1000 nM | > 1000 nM | > 1000 nM | ≤ 100 nM | ≤ 100 nM | > 1000 nM | > 1000 nM | ≤ 100 nM | ≤ 100 nM | > 1000 nM | IC50 (HUT78): ≤ 100 nM; IC50 (KARPAS299): ≤ 100 nM; IC50 (HEPG2): > 1000 nM; IC50 (HL60): ≤ 100 nM; IC50 (U87MG): > 1000 nM; IC50 (BXPC3): > 1000 nM; IC50 (REC1): ≤ 100 nM; IC50 (SW579): ≤ 100 nM; IC50 (U118): > 1000 nM; IC50 (MESSA): > 1000 nM; IC50 (MELWO): ≤ 100 nM; IC50 (MDAMB231): > 1000 nM; IC50 (HCT116): ≤ 100 nM |
| Cc1ccc(C(=O)NCCN2CCOCC2)cc1Nc1ncc(-c2ccc(-n3cccn3)cc2)o1 [Example 005, 4-Methyl-N-(2-morpholin-4-yl-ethyl)-3-[5-(4-pyrazol-1-yl-phenyl)-oxazol-2-ylamino]-benzamide] | > 1000 nM | > 1000 nM | > 1000 nM | > 1000 nM | > 1000 nM | > 1000 nM | > 1000 nM | > 1000 nM | > 1000 nM | > 1000 nM | > 1000 nM | > 1000 nM | > 1000 nM | > 1000 nM | > 1000 nM | > 1000 nM | > 1000 nM | > 1000 nM | > 1000 nM | > 1000 nM | IC50 (HUT78): > 1000 nM; IC50 (KARPAS299): > 1000 nM; IC50 (HEPG2): > 1000 nM; IC50 (HL60): > 1000 nM; IC50 (U87MG): > 1000 nM; IC50 (BXPC3): > 1000 nM; IC50 (REC1): > 1000 nM; IC50 (SW579): > 1000 nM; IC50 (U118): > 1000 nM; IC50 (MESSA): > 1000 nM; IC50 (MELWO): > 1000 nM; IC50 (MDAMB231): > 1000 nM; IC50 (HCT116): > 1000 nM |
